Earlier results, collected in US20120190646A1, “Compositions Comprising Thalidomide and Artemisinin for the Treatment of Cancer” (priority 2009, published 2012).

Details: multiple myeloma patients; thalidomide administered without prophylaxis; 'as high as'

## O=C1CCC(N2C(=O)c3ccccc3C2=O)C(=O)N1 (racemic) [thalidomide, 2-(2,6-dioxo-3-piperidinyl)-1H-isoindole-1,3(2H)-dione]
  VTE rates: ≤ 26%
